In patent publication US20220211658A1, “METHODS FOR TREATING DISORDERS ASSOCIATED WITH SLEEP SPINDLE DEFICITS” (The Broad Institute, Inc., priority 2019, published 2022):

How the values were obtained:
[1] = system: TRN neurons in WT mice; experiment: Rebound burst firing in TRN neurons, acute brain slices from WT mice; format: cell-based; conditions: mean±s.e.m.
Source text: (§1) TRN neurons are known to display dual firing modes depending on their resting membrane potential: tonic and burst firing. While tonic firing refers to regular sodium spike trains at depolarized membrane potential, burst firing is characterized by repetitive “low-threshold” T type Ca^2+ transients (mediated by Cav3.3 channel) crowned by high-frequency sodium spikes when hyperpolarized. This burst firing mode may be critical for the generation and/or the maintenance of certain sleep rhythms in mice, including generation and maintenance of sleep spindle oscillations (Astori et al., 2011; Lee et al., 2014; Steriade et al., 1993; von Krosigk et al., 1993; Sherman et al., 2002).
Whether this characteristic TRN burst firing activity is affected by activation of the group II metabotropic glutamate receptors, including mGlu2 and mGlu3, was examined using the group II metabotropic glutamate receptor agonist, LY379268. As shown in FIG. 1A-1B, a significant increase in the repetitive rebound bursting after the addition of LY379268 compared to baseline levels in acute brain slices acquired from wild-type (WT) mice was observed. The rebound bursting in the baseline condition (control) was 1.87±0.291 (mean±s.e.m.), while after the bath application of LY379268 (1 μM) it was 2.87±0.435 (n=15 Wilcoxon signed rank test: p=0.002**). Such increase was not observed in WT slices treated with artificial cerebrospinal fluid (ACSF; n=14; baseline: 1.79±0.291; ACSF treated: 2.21±0.299; Wilcoxon signed rank test: p=0.1562). In addition, there was also a reduction in burst threshold (defined as the lowest membrane holding potential from which hyperpolarization induced rebound bursting can be observed) in WT mice after bath application of LY379268 (1 μM; FIG. 1C). The threshold for rebound bursting in the baseline condition (control) was −76.98 mV±1.79 (mean±s.e.m.), while after the bath application of LY379268 (1 μM) it was −78.48 mV±1.80 (n=10 Wilcoxon signed rank test: p=0.048*). Such changes in threshold were also not observed following ACSF treatment (n=10; baseline: −76.06 mV±1.71; ACSF treated: −76.32 mV±1.82; Wilcoxon signed rank test: p=0.3750).
Since early clinical trials used a prodrug form of another selective group II metabotropic glutamate receptor agonist, specifically […] (a methionine amide of LY-404039, also called pornagiumetad methionil or LY-2140023 monohydrate), the effect of LY-404039 on TRN neuron rebound bursting activity in WT mice was measured. […] The rebound bursting in control conditions was 2.71±0.42 (mean±s.e.m.), while after the bath application of LY404039 (1 μM) it was 4.57±0.64 (n=7 Wilcoxon signed rank test: p=0.0156).
Whether specific allosteric activation of the mGlu3 receptor can also enhance rebound bursting activity in TRN neurons was examined. […]

[2] = system: WT mice; experiment: EEG recording of NREM sleep and sleep spindle density after Mavalon-63, decision tree algorithm; format: in vivo; conditions: 10 mg/kg
Description: (§2) There is a strong correlation between rebound bursting in TRN neurons and the rate of occurrence of sleep spindle oscillations during NREM or deep sleep state in mice (Wells et al., Ghoshal et al.) Since LY379268 increased rebound burst firing of TRN neurons in WT mice and rescued rebound bursting deficits in RH mice, it was examined whether activation of mGlu3 could rescue the sleep spindle deficits observed in the RH mice. LY379268 was administered intraperitoneally (i.p.; 10 mg/kg) while simultaneously recording the brain activity using electroencephalography (EEG) in WT and CaV3.3 RH mice. EEG was recorded using surface electrodes chronically implanted near the frontal and parietal lobes of the mice (Pinnacle Systems). Mice were habituated in the EEG recording arena for 48 hrs and then injected with vehicle (0.9% saline) and recorded for another 24 hours. Then, 10 mg/kg LY379268 formulated in 0.9% saline was injected, and their EEG activity was recorded for another 24 hours, and analyzed by Luna (zzz.bwh.harvard.edu, Ghoshal et al., 2020).
Whether allosteric activation of mGlu3 receptor using the Mavalon-63 PAM would also lead to an increase in sleep spindle density was examined. The experimental design is shown in FIG. 6A, and mice were similarly recorded as in Example 4. […]

[3] = system: WT and CaV3.3 RH mice; experiment: EEG recording of NREM sleep, delta power and sleep spindles after LY379268, analyzed by Luna; format: in vivo; conditions: 10 mg/kg i.p.
Description: as §2

[4] = system: TRN neurons in RH mice; experiment: Rebound burst firing in TRN neurons, slices from CACNA1I R1305H (RH) mice; format: cell-based; conditions: LY379268 1 μM bath application, mean±s.e.m., n=9, baseline 1.44±0.444, p=0.0039
Source text: as §1
Mice carrying a mutation in CACNA1I (R1305H; RH mice) show a significant deficit in rebound bursting of TRN neurons. The amino acid sequence of mouse CACNA1I protein is provided in SEQ ID NO: 2. Whether the group II metabotropic glutamate receptor agonist LY379268 could rescue such deficits in rebound bursting in RH mice was tested. Similar to in WT mice, LY379268 (1 μM) was also able to increase rebound bursting in RH mice (FIG. 2A-2B). The rebound bursting in baseline/control conditions was 1.44±0.444 (mean±s.e.m.), while after the bath application of LY379268 (1 μM) it was 3.78±1.08 (n=9 Wilcoxon signed rank test: p=0.0039**). […]

[5] = both WT and RH mice, 12 hr light cycle

CN1C(=O)c2cccn2-c2cc(-c3ccc(F)cn3)ccc2C12CC2 [Mavalon 63, 5-Methyl-9-(5-fluoropyridin-2-yl)-spiro[benzo [f]pyrrolo[1.2-a][1,4]diazepine-6,1′-cyclopropan]-4(5H)-one]
rebound bursting (number of rebound bursts) after bath application ([1]; WT TRN neurons, Mavalon 63 500 nM bath application, n=12, baseline 3.2±0.77, p=0.0020): 4.9±0.91 | time spent in NREM ([2]; 12-hr light cycle): did not increase | parietal sleep spindle density during NREM ([2]; averaged across all center frequencies 9-15 Hz, 12 hour light cycle): appreciable and significant (p<0.05; paired t-test) increase

N[C@@]1(C(=O)O)CS(=O)(=O)[C@H]2[C@H](C(=O)O)[C@H]21 [LY404039, (1R,4S,5S,6S)-4-Amino-2-thiabicyclo [3.1.0]hexane-4,6-dicaiboxylic acid 2,2-dioxide]
rebound bursting (number of rebound bursts) after bath application ([1]; WT mice, LY404039 1 μM bath application, n=7, control 2.71±0.42, p=0.0156): 4.57±0.64

N[C@@]1(C(=O)O)CO[C@H]2[C@H](C(=O)O)[C@H]21 (stereo in doubt) [LY379268, (1R,4R,5S, 6R)-4-Amino-2-oxabicyclo[3.1.0]hexane-4,6-dicarboxylic acid]
NREM specific sleep spindle deficits in RH mice ([3]; RH mice, to wildtype levels, WT-baseline vs RH-LY379268 p>0.05): rescued | sleep spindle density, entire NREM period ([3]; both WT and RH mice, 12-hr light cycle, especially parietal cortex, Fc=13 Hz and 15 Hz): modest but significant increase | relative delta power [3, 5]: concurrent increase | time spent in NREM sleep [3, 5]: increased | increase in sleep spindles, latter half (last 6 hours) of the light cycle ([3]; compared with the entire 12-hr light cycle, Fc=13 Hz and 15 Hz): more robust | rebound bursting (number of rebound bursts) after bath application [4]: 3.78±1.08 | threshold for rebound bursting after bath application ([1]; WT mice, LY379268 1 μM bath application, n=10, baseline −76.98 mV±1.79, p=0.048): −78.48 mV | rebound bursting (number of rebound bursts) after bath application ([1]; WT mice, LY379268 1 μM bath application, n=15, baseline 1.87±0.291, p=0.002): 2.87±0.435
